{"source": "patent US10512627B2", "about": "“Anti-tumor compound and the medical use thereof” (Tianjin Medical University Cancer Institute and Hospital, priority 2014, dated 2019)", "key": {"[1]": {"tested_on": "human breast cancer cells MDA-MB-231", "assay": "Scratching assay, migration of MDA-MB-231 (Example 14)", "format": "cell-based", "settings": "20 μmol/L, 0-24 h", "protocol": "The inhibiting ability of 2-(4′-methyl-3′-nitrobenzoylamino)-3-indolylpropionic acid (TCI05), 2-(4′-methyl-3′-nitrobenzoylamino)-3-(4-hydroxy-phenyl) propionic acid (TCI06), 2-(4′-methyl-3′-nitrobenzenemethoxycarbonyl)-3-phenylpropionic acid (TCI07), 2-(4′-methyl-3′-nitrobenzenemethoxycarbonyl)-3-indolylpropionic acid (TCI08) for the migration of human breast cancer cells MDA-MB-231 was tested by scratching assay.\nThe MDA-MB-231 cells in logarithmic growth phase were seeded in the 6-well plate at a density of 1×10^6/3 ml, and 12 h later, TCI05, TCI06, TCI07, TCI08 (formulation was the same as TCI04) was added, 150 μl per well, with the final concentration of 20 μmol/L. The negative control was 150 μL sterilized water with 2% DMSO. 48 h later, 200 ul tips were used to scratch, and after washing 4 times with PBS, 3 ml medium without fetal bovine serum was added per well. Under the inverted microscope, the distance of cell migration was recorded every 3 h, and photos were taken at 0 h and 24 h."}, "[2]": {"tested_on": "MDA-MB-231 cells", "assay": "MTT assay, synergistic effect with Paclitaxel (Example 12)", "format": "cell-based, human", "settings": "Homo sapiens", "protocol": "Synergistic effects of (S)2-(4′-methyl-3′-nitrobenzoylamino)-3-phenylpropionic acid and Paclitaxel was tested by MTT assay.\n1) The MDA-MB-231 cells in logarithmic growth phase were seeded in the 96-well plate at a density of 4×10^3/0.2 ml. After culturing for 12 h, 10 μl Paclitaxel solution was added, with the final concentration of 0, 0.001, 0.01, 0.1, 1, 10, 50, 100, 200 μM, then 10 μL (S)2-(4′-methyl-3′-nitrobenzoylamino)-3-phenylpropionic acid PBS solution was add to half of the wells for each group with the final concentration of 20 μM, followed by continuous culturing for 24 or 48 h.\n2) 5 mg/mL MTT solution was prepared with sterilized PBS, filtered with 0.22 μm film, and diluted with medium to 1 mg/mL. After discarding the medium in the 96-well plate, 100 μL 1 mg/mL MTT working solution was added, followed by continuous culturing for 5 h.\n3) MTT working solution was discarded, and 150 μL DMSO was added per well (note: to away from light). The plate was shaken on a horizontal shaker at 170 rpm for 10 min, and then the absorbance at 490 nm was detected by microplate reader."}, "[3]": {"tested_on": "human breast cancer cell MDA-MB-231", "assay": "Scratching assay, migration of MDA-MB-231 (Example 16)", "format": "cell-based", "settings": "for average (scratch assay distance): control 13.1667", "protocol": "The inhibiting ability of 4-hydroxy-3-nitrobenzoic acid and 4-amino-3nitrobenzoic acid for the migration of human breast cancer cell MDA-MB-231 was tested by scratching assay.\nThree lines were marked on the underside of 6-well plate, MDA-MB-231 breast cancer cells in logarithmic growth phase were digested with 0.7 mL 0.08% trypsin for 1 min, and the digestion was stopped with complete culture medium. After centrifugation at 1000 r/min for 3 min, the supernatant was discarded, then 3 mL complete culture medium was added. After pipetting to make suspension of single cell, the cells in the cell suspension was counted, and the concentration of the cells was adjusted to a density of 5×10^5 cells/well to plate the 6 wells plate, and 6 groups of drugs containing complete culture medium (DMEM+10% FBS+1% Penicillin-Streptomycin+drug) were added. After culturing in a incubator for 12 h until the cells were attached, the culture medium was removed, 20 μL tips were used to scratch vertically to the three transverse lines on the underside to obtain 6 distances for counting, and after washing with phosphate buffered saline (PBS) three times, 6 groups of drugs containing culture medium without FBS (DMEM+drug) were added respectively, and the width of the scratches were observed and recorded at 0 h, 3 h, 6 h, 9 h, 12 h and 24 h under inverted microscope, with 6 distances being recorded per well, wherein, photos were taken with inverted microscope at 0 h and 24 h for recording."}, "[4]": {"tested_on": "4T1-luciferase cells", "assay": "In situ model of breast cancer in nude mouse, lung metastasis by in vivo imaging (Example 7)", "parameters": "species or system nude mice", "settings": "50 mg/kg tail vein, twice a day, 21 days; P<0.01", "protocol": "4) An in situ breast cancer model is constructed by in situ inoculating nude mice with 4T1 cells which are stably transfected with Luciferase, and the number of metastatic tumors on the lung is detected by in vivo imaging system. Such a model mimics the occurrence and metastasis of breast cancer.\nThe ability of (S)2-(4′-methyl-3′-nitrobenzoylamino)-3-phenylpropionic acid for inhibiting tumor metastasis in vivo was tested by in situ model of breast cancer in nude mouse.\n1) Mice grouping: Nude female mice of SPF grade, 5 weeks old, 18˜22 g, 8 mice for each group;\n2) The mother liquid of (S)2-(4′-methyl-3′-nitrobenzoylamino)-3-phenylpropionic acid (TCI04) for the dosage form administrated by intravenous injection was diluted to 2 mg/mL, 0.1 mg/mL by adding sterilized water. The dosage for administration in mice was as follows, high dosage of 20 mg/kg; low dosage of 1 mg/kg. […]\n3) 4T1-luciferase cells in logarithmic growth phase were digested with 0.05% typsine for 1 min, after centrifugation at 1000 rpm for 5 min, the supernatant was discarded and the cells were resuspended and counted. […]\n5) After the completion of the administration, the mice were detected by in vivo imaging system for the condition of tumor metastasis and immediately sacrificed; the lungs alone were detected by the in vivo imaging system for the light intensity to determine the number of tumor metastasis."}}, "note": "Like-named read-outs stand apart in the source and are kept apart here."}
{"compound": "Cc1ccc(C(=O)NC(Cc2ccc(O)cc2)C(=O)O)cc1[N+](=O)[O-]", "note": "(stereo not shown) [TCI06, 2-(4′-methyl-3′-nitrobenzoylamino)-3-(4-hydroxy-phenyl)propionic acid]", "values": [{"measurement": "inhibition of migration ability (coalescence speed of cell scratch vs negative control)", "setting": "[1]", "result": "obviously inhibit"}]}
{"compound": "Cc1ccc(COC(=O)C(Cc2ccccc2)C(=O)O)cc1[N+](=O)[O-]", "note": "(stereo not shown) [TCI07, 2-(4′-methyl-3′-nitrobenzenemethoxycarbonyl)-3-phenylpropionic acid]", "values": [{"measurement": "inhibition of migration ability (coalescence speed of cell scratch vs negative control)", "setting": "[1]", "result": "obviously inhibit"}]}
{"compound": "Cc1ccc(COC(=O)C(Cc2c[nH]c3ccccc23)C(=O)O)cc1[N+](=O)[O-]", "note": "(stereo not shown) [TCI08, 2-(4′-methyl-3′-nitrobenzenemethoxycarbonyl)-3-indolylpropionic acid]", "values": [{"measurement": "inhibition of migration ability (coalescence speed of cell scratch vs negative control)", "setting": "[1]", "result": "obviously inhibit"}]}
{"compound": "2-(4′-methyl-3′-nitrobenzoylamino)-3-indolyl propionic acid [TCI05]", "values": [{"measurement": "inhibition of migration ability (coalescence speed of cell scratch vs negative control)", "setting": "[1]", "result": "obviously inhibit"}]}
{"compound": "CC(=O)O[C@H]1C(=O)[C@@]2(C)[C@H]([C@H](OC(=O)c3ccccc3)[C@]3(O)C[C@H](OC(=O)[C@H](O)[C@@H](NC(=O)c4ccccc4)c4ccccc4)C(C)=C1C3(C)C)[C@]1(OC(C)=O)CO[C@@H]1C[C@@H]2O", "note": "[Paclitaxel]", "values": [{"measurement": "IC50", "setting": "[2]; MDA-MB-231, 24 h, Paclitaxel + 20 μM (S)2-(4′-methyl-3′-nitrobenzoylamino)-3-phenylpropionic acid, read-out: IC50 after 24 h", "result": 395, "unit": "nM"}, {"measurement": "IC50", "setting": "[2]; MDA-MB-231, 24 h, Paclitaxel alone, read-out: IC50 after 24 h", "result": 3970, "unit": "nM"}, {"measurement": "IC50", "setting": "[2]; MDA-MB-231, 48 h, Paclitaxel + 20 μM (S)2-(4′-methyl-3′-nitrobenzoylamino)-3-phenylpropionic acid, read-out: IC50 after 48 h", "result": 46, "unit": "nM"}, {"measurement": "IC50", "setting": "[2]; MDA-MB-231, 48 h, Paclitaxel alone, read-out: IC50 after 48 h", "result": 512, "unit": "nM"}]}
{"compound": "Nc1ccc(C(=O)O)cc1[N+](=O)[O-]", "note": "[4-amino-3-nitrobenzoic acid]", "values": [{"measurement": "inhibition of migration ability (coalescence speed of cell scratch vs negative control)", "setting": "[3]", "result": "obviously inhibit"}, {"measurement": "average (scratch assay distance)", "setting": "[3]", "result": "8.1667 10^−2 mm"}]}
{"compound": "O=C(O)c1ccc(O)c([N+](=O)[O-])c1", "note": "[4-hydroxy-3-nitrobenzoic acid]", "values": [{"measurement": "inhibition of migration ability (coalescence speed of cell scratch vs negative control)", "setting": "[3]", "result": "obviously inhibit"}, {"measurement": "average (scratch assay distance)", "setting": "[3]", "result": "8 10^−2 mm"}]}
{"compound": "Cc1ccc(C(=O)O)cc1[N+](=O)[O-]", "note": "[TCI01, 4-methyl-3-nitrobenzoic acid, reference compound]", "values": [{"measurement": "light intensity of the whole lung vs negative control", "setting": "[4]", "result": "significantly weaker than the negative control"}]}
